Laboratory results published in patent publication US20110150798A1, “COMPOSITIONS AND METHODS FOR INCREASING CELLULAR FAR AND BLEACHING SKIN” (priority 2009, published 2011).

Key:
keratinocytes = test: Lipid production in keratinocytes, Oil Red O staining; assay type: cell-based; settings: 2.5 uM, 48 hours, compared to DMSO control, FIG. 1
Text: FIG. 1 is a photograph of keratinocytes treated with troglitazone and stained for lipids.

human preadipocytes = test: Lipid production in preadipocytes, Oil Red O staining; assay type: cell-based; settings: 1.1 uM, about 48 hours, FIG. 2 and FIG. 3
Text: FIG. 2 is a photograph of human preadipocytes treated with troglitazone and stained for lipids. FIG. 3 is a photograph of human preadipocytes treated with troglitazone and stained for lipids.

Cc1c(C)c2c(c(C)c1O)CCC(C)(COc1ccc(CC3SC(=O)NC3=O)cc1)O2 (racemic) [troglitazone, (RS)-5-(4-[(6-hydroxy-2,5,7,8-tetramethylchroman-2-yl)methoxy]benzyl)thiazolidine-2,4-dione]
lipid production in the cells (lipid droplets stained with Oil Red O) (keratinocytes): increase in lipid production | lipid production (quantity and size of lipid droplets stained with Oil Red O) (human preadipocytes): increase in the lipid production
